What all share (experiment): DTP human tumour cell line panel, 48 h
Assay [1] deals with BT-549 breast.
Assay [2] concerns MOLT-4 leukemia.
Assay [3] has as its system UACC-62 melanoma.
Assay [4] relates to HCT-116 colon.
Assay [5] has as its system UACC-257 melanoma.
The subject of assay [6] is HS 578T breast.
Assay [7] deals with COLO 205 colon.
Assay [8] has as its system A549 NSCLC.
Assay [9] relates to SNB-19 CNS.
Assay [10] deals with MDA-N.
The subject of assay [11] is UO-31 renal.

SMILES strings stand for the structures.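 Following 48 hours of exposure in 96-well plates, responses at five concentrations were used to interpolate endpoints linearly. TGI: concentration producing complete growth inhibition.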

From PubChem BioAssay (NCI) come the findings set out here.

As to `O=C(N/N=C1/C(=O)c2c3ccccc3cc3cccc1c23)c1ccccc1`, the concentration for total growth inhibition (TGI) in assay [1] is > 100 µM; in assay [2] it was > 100 µM; in assay [3], > 78.1 µM; in assay [4] it was > 84.8 µM; in assay [5], > 100 µM; in [6], > 73.2 µM. Besides, the TGI in [7], in assay [8], in [9], in [10] and in assay [11] was > 100 µM in each case.
For the molecule `CC(C)=CCC/C(C)=C/CC/C(C)=C/CC/C(=C/CC/C(C)=C\CC/C(C)=C/CC/C(C)=C/CC/C(C)=C/Cc1cc(O)ccc1O)CO`, the TGI is 12.5 µM in [1]; > 59.5 µM in [2]; 5.17 µM in assay [3]; > 31.9 µM in [4]; 11.8 µM in [5]; 8.44 µM in assay [6]. In addition, the TGI in [7] is 7.87 µM; in [8], 22.6 µM; in assay [9], > 100 µM; in [10], 64.3 µM; in assay [11] it was 21.4 µM.
As for `O=C1OC(=O)c2cc(S(=O)(=O)c3ccc4c(c3)C(=O)OC4=O)ccc21`, the TGI in assay [1], in assay [3], in assay [4], in [5], in [6] and in assay [7] was > 100 µM in each case. Besides, the total growth inhibition concentration (TGI) in [8], in assay [9], in [10] and in assay [11] was > 100 µM in each case.
Turning to `C=C1C(=O)O[C@@H]2C[C@]3(C)CC[C@]4(C)[C@H](CC[C@@H]5[C@@]6(C)CCC(=O)C(C)(C)[C@@H]6CC[C@]54C)[C@H]3[C@H]12`, the TGI is 37.4 µM in assay [1]; 5.76 µM in assay [2]; 32.9 µM in [3]; 31.3 µM in assay [4]; 32.8 µM in assay [5]; > 78 µM in [6]. Moreover, the TGI in assay [7] is 21.6 µM; in assay [8], 46.9 µM; in assay [9] it was > 60.6 µM; in assay [10] it was 30.9 µM; in assay [11], 28.3 µM.
For `CC(=O)OC1COC(Nc2nc(NCc3ccccc3)n(C)c(=O)c2N=O)C(OC(C)=O)C1OC(C)=O` (stereo not given), the TGI in assay [1], in assay [2], in assay [3], in assay [4], in [5] and in assay [6] was > 10 µM each time. Also, the total growth inhibition concentration (TGI) in assay [7], in [8], in assay [9] and in assay [10] was > 10 µM each time.
For `Clc1ccc(C2Nc3ccccc3C3=NCCN32)cc1` (stereo not given), the TGI in [1] was 56.5 µM; in [2], > 100 µM; in assay [3] it was 32.3 µM; in assay [4], 71.5 µM; in [5] it was 36 µM; in [6], > 100 µM. Moreover, the concentration for total growth inhibition (TGI) in [7] is 25.7 µM; in assay [8], > 100 µM; in assay [9], 94.9 µM; in assay [10], 39.8 µM; in assay [11], > 100 µM.
As to `CC1=Nc2sc3c(c2C2=NCCN12)CCCC3`, the concentration for total growth inhibition (TGI) in assay [1] was 43.4 µM; in assay [2], 60.5 µM; in assay [3] it was 32 µM; in [4] it was 44.7 µM; in assay [5], 48.5 µM; in assay [6], 91.1 µM. Also, the total growth inhibition concentration (TGI) in assay [7] is 79.1 µM; in [9], > 100 µM; in [10] it was 44.2 µM; in assay [11], 50.5 µM.
As to `CC1(C)C2CC(=O)C1(C)C(OCc1ccccc1)C2` (stereo not given), the TGI in assay [1] was > 100 µM; in assay [2], 46.6 µM; in [3] it was > 100 µM; in [4] it was 66.1 µM; in assay [5], > 100 µM; in assay [6], 77 µM. For the same molecule, the TGI in assay [7] was 90.6 µM; in [8], > 100 µM; in [9], > 100 µM; in [10] it was > 100 µM; in assay [11] it was > 100 µM.
For the molecule `CCOP(=O)(OCC)C(N)c1ccc(Cl)cc1` (stereo not given), the TGI in assay [1], in [2], in assay [3], in assay [4], in [5] and in assay [6] was > 100 µM in each case. For the same molecule, the TGI in assay [7], in assay [8], in assay [9] and in assay [10] was > 100 µM in each case.
`S=C(c1c[nH]c2ccccc12)N1CCN(Cc2ccccc2)CC1`: the TGI is 32.4 µM in assay [1]; 47.5 µM in assay [2]; 33.7 µM in assay [3]; 29.1 µM in assay [4]; 50.9 µM in assay [5]; 34.6 µM in assay [6]. The total growth inhibition concentration (TGI) in assay [7] worked out at 31 µM; in assay [9], 35.5 µM; in [10], 29.7 µM; in assay [11] it was 21.5 µM.
In the case of `CC[C@H]1C=CCC[C@@]2(C[C@@H]3CC[C@H]4[C@@H](C(=O)OCCCCCCCCCCCCCCCC(=O)N(CCCN)C[C@@H](O)CCN)[C@@]5(CCC[C@@H](C)O5)NC(=[N+]34)N2)O1`, the concentration for total growth inhibition (TGI) in assay [1] was 4.41 µM; in [2], 2.84 µM; in assay [3], 3.5 µM; in assay [4] it was 2.96 µM; in [5], 3.41 µM; in [6], 3.4 µM. The total growth inhibition concentration (TGI) in [7] was 3.79 µM; in assay [8], 3.35 µM; in [10] it was 3.01 µM; in assay [11], > 10 µM.
On to `Cc1ccc2nc(-c3ccc(N4C(=O)C(Cl)C4c4ccc(Cl)cc4)cc3)sc2c1` (stereo not given), for which the total growth inhibition concentration (TGI) was > 100 µM in [1]; 31.3 µM in assay [3]; 59.4 µM in [4]; 47.7 µM in assay [5]; 66.8 µM in [6]; 27.8 µM in assay [7]. The TGI in [8] is 36.9 µM; in assay [9], > 100 µM; in [10], 40.9 µM; in assay [11], 45.8 µM.
As for `COc1ccc(OC)c(NS(=O)(=O)c2ccc3nc(C)n(NS(=O)(=O)c4cc(OC)ccc4OC)c(=O)c3c2)c1`, the TGI in assay [1] was > 100 µM; in assay [2] it was 62.7 µM; in assay [3], > 100 µM; in [4] it was > 100 µM; in assay [5], > 100 µM; in [6], > 100 µM. Moreover, the concentration for total growth inhibition (TGI) in assay [7], in [9], in assay [10] and in [11] was > 100 µM each time.
As for `COc1cc2c(=O)cnoc2cc1O`, the TGI in assay [1], in assay [2], in assay [3], in assay [5], in [6] and in assay [7] was > 100 µM in each case. For the same molecule, the TGI in assay [8], in assay [9], in [10] and in assay [11] was > 100 µM each time.
In the case of `COc1c(O)cc2c(c1O)C(=O)/C(=C/c1ccc(O)cc1)CO2`, the TGI in [1] is > 100 µM; in assay [2], > 100 µM; in assay [3], 40 µM; in assay [5], > 100 µM; in assay [6], > 100 µM; in assay [7], 32.5 µM. Besides, the concentration for total growth inhibition (TGI) in [8] is > 100 µM; in assay [9], > 100 µM; in assay [10] it was > 100 µM; in assay [11], 65.1 µM.
In the case of `Cc1ccc(/C(O)=C/c2nc3ccccc3s/c2=N/CS(=O)(=O)c2ccc(C)cc2)cc1`, the total growth inhibition concentration (TGI) in [1], in assay [2], in [3], in [4], in assay [5] and in assay [6] was > 10 µM in each case. The TGI in [7], in assay [8], in assay [9] and in assay [10] was > 10 µM throughout.
As for `CCOC(=O)/C(C#N)=C/c1ccnc2ccccc12`, the TGI in assay [1], in assay [2], in assay [3], in [4], in assay [5] and in assay [6] was > 100 µM throughout. The TGI in assay [7], in assay [8], in assay [9] and in assay [10] was > 100 µM each time.
For the molecule `COc1ccc(N2C(=O)C3c4[nH]c5ccc(F)cc5c4C4CCC(c5ccccc5)CC4C3C2=O)cc1` (stereo not given), the TGI in assay [1] was 40.7 µM; in assay [3], 27.6 µM; in [4], > 100 µM; in assay [5] it was 97 µM; in assay [6], 31.8 µM; in assay [7], > 100 µM. The TGI in assay [8] was > 100 µM; in assay [9], 27.9 µM; in [10], > 100 µM; in [11], 55.5 µM.
Consider `Cc1ccc2oc(=O)c(C(=O)Nc3nc(C45CC6CC(CC(C6)C4)C5)cs3)cc2c1`, for which the concentration for total growth inhibition (TGI) in assay [1], in assay [2], in [4], in [5], in assay [6] and in [7] was > 100 µM in each case. Further, the TGI in assay [8], in [9], in [10] and in assay [11] was > 100 µM throughout.

In general, TGI refers to the concentration giving total growth inhibition. Read a high TGI as less potent growth arrest.
